Tests used:
[1] = target: T1, hM1 (human Muscarinic receptor subtype 1) (Homo sapiens, UniProt P11229); assay: Human M1 calcium mobilization FLIPR assay; format: cell-based; details: CHO cells expressing hM1, FLIPR; for EC50: read-out: hM1EC50; for Emax: read-out: hM1Emax
T1 construct: expressed in transfected cells; host or cells: CHO cells (chinese hamster ovary cells, ATCC)
T1 sequence (P11229 1-460): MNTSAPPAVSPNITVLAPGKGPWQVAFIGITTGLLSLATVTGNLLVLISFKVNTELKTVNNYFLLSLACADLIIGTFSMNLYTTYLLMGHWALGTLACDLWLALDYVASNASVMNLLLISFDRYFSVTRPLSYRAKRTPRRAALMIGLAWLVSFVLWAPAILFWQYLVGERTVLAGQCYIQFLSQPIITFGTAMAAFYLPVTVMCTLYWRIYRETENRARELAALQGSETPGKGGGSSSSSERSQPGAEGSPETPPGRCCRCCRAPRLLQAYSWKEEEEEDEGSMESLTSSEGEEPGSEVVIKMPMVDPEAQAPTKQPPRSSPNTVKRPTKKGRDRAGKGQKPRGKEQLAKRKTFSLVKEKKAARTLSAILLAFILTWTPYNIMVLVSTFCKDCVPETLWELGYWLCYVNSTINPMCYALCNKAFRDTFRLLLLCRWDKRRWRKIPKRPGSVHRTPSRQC
Procedure: The compound activity in the present invention (EC50 or IC50) was measured using a 384 plate-based imaging assay that monitors drug induced intracellular Ca^2+ release in whole cells. Activation of hM1 (human Muscarinic receptor subtype 1, gene bank access NM_000738), rM1 (rat Muscarinic receptor subtype 1, gene bank access NM_080773), hM3 (human Muscarinic receptor subtype 3, gene bank access NM_000740NM_000740) and hM5 (human Muscarinic receptor subtype 5, gene bank access NM_0121258) receptors expressed in CHO cells (chinese hamster ovary cells, ATCC) was quantified in a Molecular Devices FLIPR II™ instrument as an increase in fluorescent signal. Inhibition of hM3 and hM5 by compounds was determined by the decrease in fluorescent signal in response to 2 nM acetylcholine activation.
CHO cells were plated in 384-black polylysine coated plate (Costar) at 8000 cells/well/50 μl for 24 hours or 4000 cells/well for 48 hours in a humidified incubator (5% CO2 and 37° C.) in DMEM/F12 medium without selection agent. Prior to the experiment the cell culture medium was removed from the plates by inversion. A loading solution of 30 μl of Hank's balanced salt solution, 10 mM Hepes and 2.5 mM Probenicid at Ph 7.4 (Cat no. 311-520-VL, Wisent) with 2 μM calcium indicator dye (FLUO-3AM, Molecular Probes F14202) was added to each well. Plates were incubated at 37° C. for 60 minutes prior to start the experiment. The incubation was terminated by washing the cells four times in assay buffer, leaving a residual 25 μl buffer per well. Cell plates were then transferred to the FLIPR, ready for compound additions.
The day of experiment, acetylcholine and compounds were diluted in three-fold concentration range (10 points serial dilution) for addition by FLIPR instrument. For all calcium assays, a baseline reading was taken for 30 seconds followed by the addition of 12.5 μl (25 μl for hM1 and rM1) of compounds, resulting in a total well volume of 37.5 μl (50 μl for hM1 and rM1). Data were collected every 1.6 seconds for 300 seconds. For hM3 and hM5 an additional 12.5 μl of acetylcholine (2 nM final) was added at 300 seconds. After this addition of acetylcholine (producing a final volume of 50 μl), the FLIPR continued to collect data every 2 seconds for 240 seconds. The fluorescence emission was read using filter 1 (emission 520-545 nm) by the FLIPR on board CCD camera.
Calcium mobilization output data were calculated as the maximal relative fluorescence unit (RFU) minus the minimal value for both compound and agonist reading frame (except for hM1 and rM1 using only the maximal RFU). Data were analyzed using sigmoidal fits of a non-linear curve-fitting program (XLfit version 5.0.6 from ID Business Solutions Limited, Guildford, UK). All EC50 and IC50 values are reported as geometric means of ‘n’ independent experiments.

[2] = target: T2, human M2 receptor (human Muscarinic receptor subtype 2) (Homo sapiens, UniProt P08172); assay: hM2 receptor GTPγS binding; format: biochemical; details: CHO membranes expressing hM2, GTPγ35S binding; for EC50: read-out: hM2_EC50
T2 construct: purchased Perkin-Elmer RBHM2M; host or cells: Chinese hamster ovary cells (CHO), membranes
T2 sequence (P08172 1-466): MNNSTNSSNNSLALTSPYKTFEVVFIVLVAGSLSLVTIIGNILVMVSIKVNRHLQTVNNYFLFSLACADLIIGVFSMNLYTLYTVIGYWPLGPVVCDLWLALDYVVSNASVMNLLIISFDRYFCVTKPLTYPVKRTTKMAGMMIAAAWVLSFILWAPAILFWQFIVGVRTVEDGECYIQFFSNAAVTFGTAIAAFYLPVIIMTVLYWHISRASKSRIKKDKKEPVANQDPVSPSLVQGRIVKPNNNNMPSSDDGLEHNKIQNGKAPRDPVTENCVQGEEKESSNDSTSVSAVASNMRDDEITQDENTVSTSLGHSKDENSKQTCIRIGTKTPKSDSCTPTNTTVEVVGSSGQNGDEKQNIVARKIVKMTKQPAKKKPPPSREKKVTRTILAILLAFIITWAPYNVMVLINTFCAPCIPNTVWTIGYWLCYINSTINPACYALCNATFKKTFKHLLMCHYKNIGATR
Procedure: hM2 Receptor GTPyS Binding
Membranes produced from Chinese hamster ovary cells (CHO) expressing the cloned human M2 receptor (human Muscarinic receptor subtype 2, gene bank access NM_000739), were obtained from Perkin-Elmer (RBHM2M). The membranes were thawed at 37° C., passed 3 times through a 23-gauge blunt-end needle, diluted in the GTPγS binding buffer (50 mM Hepes, 20 mM NaOH, 100 mM NaCl, 1 mM EDTA, 5 mM MgCl2, pH 7.4, 100 μM DTT). The EC50, IC50 and Emax of the compounds of the invention were evaluated from 10-point dose-response curves (three fold concentration range) done in 60 μl in 384-well non-specific binding surface plate (Corning). Ten microliters from the dose-response curves plate (5× concentration) were transferred to another 384 well plate containing the following: 10 μg of hM2 membranes, 500 μg of Flashblue beads (Perkin-Elmer) and GDP in a 25 μl volume. An additional 15 μl containing 3.3× (55000 dpm) of GTPγ^35S (0.4 nM final) were added to the wells resulting in a total well volume of 50 μl. Basal and maximal stimulated GTPγ^35S binding was determined in absence and presence of 30 μM of acetylcholine agonist. The membranes/beads mix were pre-incubated for 15 minutes at room temperature with 25 μM GDP prior to distribution in plates (12.5 μM final). The reversal of acetylcholine-induced stimulation (2 μM final) of GTPγ^35S binding was used to assay the antagonist properties (IC50) of the compounds. The plates were incubated for 60 minutes at room temperature with shaking, then centrifuged at 2000 rpm for 5 minutes. The radioactivity (cpm) was counted in a Trilux (Perkin-Elmer).
Values of EC50, IC50 and Emax were obtained using sigmoidal fits of a non-linear curve-fitting program (XLfit version 5.0.6 from ID Business Solutions Limited, Guildford, UK) of percent-stimulated GTPγ^35S binding vs. log (molar ligand).
All EC50 and IC50 values are reported as geometric means of ‘n’ independent experiments. […] The IC50 was the concentration of the compound of the invention at which 50% inhibition of acetylcholine GTPγ^35S binding stimulation has been observed.

SMILES: CCOC[C@@H]1CCCN(C[C@H]2CCCC[C@@H]2NC(=O)C2CCCCC2)C1 [N-((1S,2R)-2-{[(3R)-3-(ethoxymethyl)piperidin-1-yl]methyl}cyclohexyl)cyclohexanecarboxamide]
- EC50 [1]: 0.157 µM
- Emax [1]: 75%
- Emax [2]: 30%
- EC50 [2]: 1.07 µM

SMILES: O=C(N[C@H]1CCCC[C@@H]1CN1CCCCCC1)c1ccc(-n2cccn2)cc1 [N-[(1S,2R)-2-(azepan-1-ylmethyl)cyclohexyl]-4-(1H-pyrazol-1-yl)benzamide]
- EC50 [1]: 0.13 µM
- Emax [1]: 70%
- Emax [2]: > 12%
- EC50 [2]: > 30 µM

SMILES: O=C(N[C@H]1CCCC[C@@H]1CN1CCCCC1)c1ccc(-n2cccn2)nc1 [N-[(1S,2R)-2-(piperidin-1-ylmethyl)cyclohexyl]-6-(1H-pyrazol-1-yl)nicotinamide]
- EC50 [1]: 0.026 µM
- Emax [1]: 82%
- Emax [2]: 0%
- EC50 [2]: > 30 µM

SMILES: C=CCOC[C@@H]1CCCN(C[C@H]2CCCC[C@@H]2NC(=O)c2ccc(-n3ccnc3)nc2)C1 [N-[(1S,2R)-2-({(3R)-3-[(allyloxy)methyl]piperidin-1-yl}methyl)cyclohexyl]-6-(1H-imidazol-1-yl)nicotinamide]
- EC50 [1]: 0.005 µM
- Emax [1]: 95%
- Emax [2]: 22%
- EC50 [2]: 0.216 µM
